Assay results published in ChEMBL document CHEMBL3864150, “Synthesis and cytotoxicity study of novel 3-(triazolyl)coumarins based fluorescent scaffolds” (Bioorg Med Chem Lett, 2016).

Tests used:
MCF7 = assay: Selectivity factor, ratio of IC50 for human MRC5 cells to IC50 for human MCF7 cells
[1] = Cytotoxicity against human MCF7 cells after 24 hrs by MTT assay; format: functional, cell-based; conditions: MCF7, 24 h
[2] = Cytotoxicity against human HeLa cells after 24 hrs by MTT assay; format: functional, cell-based
HeLa = assay: Selectivity factor, ratio of IC50 for human MRC5 cells to IC50 for human HeLa cells
[3] = Cytotoxicity against human MRC5 cells after 24 hrs by MTT assay
[4] = Drug uptake in human MCF7 cells at 20 uM after 2 hrs by fluorescence microscopy; format: ADME, cell-based; conditions: mcf7, 2 h

Drug uptake [4] | SMILES | Ratio IC50 (MCF7) | IC50 [1] [µM] | IC50 [2] [µM] | Ratio IC50 (HeLa) | IC50 at 24 h [3] [µM]
 | COc1cccc2cc(N=[N+]=[N-])c(=O)oc12 | 1.85 | 31.5 | 36.4 | 1.61 | 58.7
 | COc1cccc2c1C(=O)c1c(O)c3c(c(O)c1C2=O)C[C@@](O)(C(=O)CO)C[C@@H]3O[C@H]1C[C@H](N)[C@H](O)[C@H](C)O1 [DOXORUBICIN] |  |  | 5.2 |  | 70.6
 | [N-]=[N+]=Nc1cc2ccc(O)cc2oc1=O | 1.63 | 38.4 | 41.6 | 1.5 | 62.7
 | [N-]=[N+]=Nc1cc2cc(Br)ccc2oc1=O | 2.97 | 23.7 | 28.3 | 2.48 | 70.4
Active | NCCC(=O)N1Cc2ccccc2-c2nnn(-c3cc4ccc(O)cc4oc3=O)c2-c2ccccc21 | 4.9 | 18.4 | 21.1 | 4.27 | 90.2
 | NCCC(=O)N1Cc2ccccc2-c2nnn(-c3cc4ccccc4oc3=O)c2-c2ccccc21 | 8.68 | 12.7 | 19.8 | 5.55 | 110
 | COc1cccc2cc(-n3nnc4c3-c3ccccc3N(C(=O)CCN)Cc3ccccc3-4)c(=O)oc12 | 4.24 | 21.9 | 26.2 | 3.54 | 92.8
 | [N-]=[N+]=Nc1cc2ccccc2oc1=O | 2.63 | 26.7 | 29.6 | 2.37 | 70.2
 | [N-]=[N+]=Nc1cc2cc(Cl)cc(Cl)c2oc1=O | 3.6 | 18.6 | 27.6 | 2.43 | 67.2
 | NCCC(=O)N1Cc2ccccc2-c2nnn(-c3cc4ccc(OCCBr)cc4oc3=O)c2-c2ccccc21 | 6.52 | 18.5 | 19.5 | 6.19 | 121
 | NCCC(=O)N1Cc2ccccc2-c2nnn(-c3cc4cc(Br)ccc4oc3=O)c2-c2ccccc21 | 9.4 | 10.7 | 18.2 | 5.49 | 100
Active | NCCC(=O)N1Cc2ccccc2-c2nnn(-c3cc4cc(Cl)cc(Cl)c4oc3=O)c2-c2ccccc21 | 18.84 | 9.83 | 17.5 | 10.58 | 185
